Measurements as given in PMC11783601, “Analogue-Sensitive Inhibition of Histone Demethylases Uncovers Member-Specific Function in Ribosomal Protein Synthesis” (Journal of the American Chemical Society, 2025).

Tested on: asKDM4 mutants (KDM4A-F185A, KDM4C-F187A, KDM4D-F189A and KDM4E-F186A)
Assay: Demethylation of extracted full-length histones, Western blot with H3K9me3 antibody
Assay type: biochemical, human
Details: histones extracted from HEK293T cells, 20 µM (Fig S19 legend)
Protocol: We next tested the inhibitory potential of 6 against these proteins using H3K9me3 peptide substrate and analyzed it by MALDI-MS. […] We subsequently examined the ability of asKDM4 variants to demethylate full-length histones extracted from mammalian cells. HEK293T cells were cultured in the presence of 10 μM n-octyl IOX1, a broad-spectrum inhibitor of demethylases,[41],[42] to generate a hypermethylated proteome (Figure S19). The extracted histone was incubated with the as variants individually, each with or without 6, and the extent of demethylation was analyzed by Western blot using the H3K9me3-specific antibody. […]
directly to ice and 2M Ammonium Acetate was added and left on ice for 5 minutes. […]
The supernatant was transferred to a fresh 1.5 mL centrifuge tube, 132 µL of TCA was added dropwise to precipitate the histones and incubated on ice for 30 mins to 1.5 hr. […] 1 µL of histone extracts was loaded on a 15% gel with the BSA standards to quantify the amount of H3 for the assay. […]
(NH4)2Fe(SO4)2, 2 mM L-ascorbic acid and 50 mM Tris pH 8.0 were incubated with or without 150 µM of L-Leu NOG for 5 minutes on ice, after which substrate (300 µM 2OG and 2 µg of Histone extract) was added to the tube. The assay was incubated at 37 °C for 1.5 hours, the samples were analyzed via western blotting using H3K9me3 specific antibody. […]

CC(C)CC(NC(=O)C(=O)O)C(=O)O (centres unmarked) [compound 6, N-oxalyl leucine]
inhibition of demethylation of full-length histone H3 by asKDM4 mutants: noticeably inhibited
inhibition of demethylation of full-length histone H3 by asKDM4 mutants (listed as NOL 6): inhibits the mutants
